Assay results reported in patent US20050043381A1, “Aminopyrazole compounds” (AGOURON PHARMACEUTICALS, INC., priority 2003, published 2005).
pEC50, pKi: −log10 of the molar value.

How the values were obtained:
[1] = molecular target: T1, full-length human CHK1 (FL-CHK1) (Homo sapiens, UniProt O14757); assay: FL-CHK1 assay (coupled spectrophotometric, Syntide-2); type: biochemical; details: FL-CHK1, 0.15 mM ATP
T1 construct: C-terminally His-tagged full-length human CHK1 (FL-CHK1); 6xHis (C); made in house
T1 sequence (O14757 1-476): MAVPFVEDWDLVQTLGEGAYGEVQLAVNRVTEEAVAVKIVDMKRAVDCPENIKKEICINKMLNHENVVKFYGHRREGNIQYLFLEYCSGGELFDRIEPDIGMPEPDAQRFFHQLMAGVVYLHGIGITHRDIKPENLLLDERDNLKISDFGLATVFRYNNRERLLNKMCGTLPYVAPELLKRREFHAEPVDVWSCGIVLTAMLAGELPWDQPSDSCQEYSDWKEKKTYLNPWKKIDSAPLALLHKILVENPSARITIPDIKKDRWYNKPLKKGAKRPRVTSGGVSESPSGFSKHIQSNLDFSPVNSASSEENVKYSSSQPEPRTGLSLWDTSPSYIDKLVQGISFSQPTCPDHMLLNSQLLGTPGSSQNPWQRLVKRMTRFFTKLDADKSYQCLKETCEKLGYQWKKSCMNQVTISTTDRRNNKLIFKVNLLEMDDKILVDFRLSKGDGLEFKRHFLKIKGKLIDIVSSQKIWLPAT
Excerpt: C-terminally His-tagged full-length human CHK1 (FL-CHK1) was expressed using the baculovirus/insect cell system. It contains 6 histidine residues (6 x His-tag) at the C-terminus of the 476 amino acid human CHK1. The protein was purified by conventional chromatographic techniques.
The production of ADP from ATP that accompanies phosphoryl transfer to the synthetic substrate peptide Syntide-2 (PLARTLSVAGLPGKK) was coupled to oxidation of NADH using phosphoenolpyruvate (PEP) through the actions of pyruvate kinase (PK) and lactic dehydrogenase (LDH). The oxidation of NADH was monitored by following the decrease of absorbance at 340 nm (ε340=6.22 cm^−1 mM^−1) using a HP8452 spectrophotometer. Typical reaction solutions contained: […] PEP; 0.15 mM NADH; 28 units of LDH/mL; 16 units of PK/mL; 3 mM DTT; 0.125 mM Syntide-2; 0.15 mM ATP; 25 mM MgCl2 in 50 mM TRIS, pH 7.5; and 400 mM NaCl. Assays were initiated with 10 nM of FL-CHK1. Ki values were determined by measuring initial enzyme activity in the presence of varying concentrations of test compounds. The data were analyzed using Enzyme Kinetic and Kaleidagraph software. […]

[2] = test system: CA-46 (lymphoma) cells; assay: Whole cell checkpoint abrogation assay (CHK1 Mitotic Index ELISA); type: cell-based; details: for pEC50: concentration causing 50% abrogation of the checkpoint, camptothecin + Nocodazole
Experimental: To examine the in vitro effects of CHK1 inhibitory compounds, an ELISA assay can be designed to monitor the abrogation of DNA damage-induced checkpoint control. The assay can be based on the trapping and detection of mitotic cells following DNA damage-induced arrest.
CA-46 (lymphoma) cells can be treated with a DNA damaging agent, such as camptothecin (Sigma), at 50 nM for 8 hours to induce DNA damage. The control compound or CHK1 inhibitor can be then added at increasing concentrations with Nocodazole (Sigma) at 0.1 μg/ml and plates can be incubated for 16 hours. Control cells, where only CHK1 inhibitors can be added, can be prepared as well to assure that the inhibitors alone have no effect on the cell cycle. The cells can be then harvested, washed with PBS, and crude acid extraction can be performed. Pellets can be resuspended in 80 μl of Acid Extraction Buffer (10 mM Hepes pH 7.9, 1.5 mM MgCl2, 10 mM KCl, 0.5 mM DTT, 1.5 mM PMSF, 0.4N sulfuric acid), vortexed briefly, and incubated for 30 minutes on ice. Samples can be then centrifuged and 75 μl of the supernatant can be transferred to a 96 well flat-bottom plate (VWR 3596). Next 15 μl Neutralizing Cocktail (# of samples×(10 μl 10N NaOH+5 μl 1M Tris Base) can be added to each well, and after mixing, 5 μl of this can be transferred to another 96 well plate with 100 μl 50 mM Tris base (pH 9.6) in each well. Samples can be dried overnight. The wells can be then washed with 200 μl ELISA wash buffer (PBS with 20 mM Tris pH 7.5, 0.05% Tween 20) 5 times and blocked with 200 μl blocking buffer (PBS with 20 mM Tris pH 7.5, 0.05% Tween 20, 3.5% Dry milk, 1.5% BSA. pH to 7.5 after preparation) for 1 hour at room temperature. Following wash and block, anti-phospho Histone H3 antibodies (Upstate USA, Inc., rabbit polyclonal) can be added at 0.5 μg/ml in block (100 μl per well) and incubated for 2 hours at room temperature. Wells can be washed again to remove unbound primary antibody and 100 μl alkaline phosphatase conjugated secondary antibodies at 0.3 mg/ml (Pierce, goat anti-rabbit IgG ([…]+L)) in block can be added for 1 hour at room temp. Wells can be washed 5 times to remove unbound secondary antibody, and washed again 3 times with PBS alone to remove detergents. Then 100 μl alkaline phosphatase substrate (Pierce 1-Step pNPP) can be added to wells. Plates can be protected from light and incubated at room temp for 1 hour. The OD can be read on Molecular Devices Vmax Kinetic Microplate Reader at 405 nm. The ratio of the OD (optical density) of a compound treated sample to the Nocodazole only treated sample (about 100% mitotic or abrogation) can be expressed in a percentage, and quantifies the percent abrogation of the checkpoint. The concentration at which a compound causes 50% abrogation of the checkpoint can be called the EC50. The raw OD values can be graphed in Excel, and an EC50 value can be generated using Kaleidograph software. Strong signal results from Nocodazole only treated cells, and equals 100% mitosis in this assay. Camptothecin+Nocodazole treated control samples have low signal, signifying no mitosis and therefore, no checkpoint abrogation. When potent CHK1 inhibitors are added to Camptothecin treated cells with Nocodazole, a high signal can be generated (generally in a dose dependent manner), due to the checkpoint abrogation activity caused by the combination treatment.

Row | Structure (SMILES) | pKi [1] | pEC50 [2] | percent abrogation of the checkpoint ([2]; @ 0.5 μM) [% @ 0.5 μM] | other results
1 | Oc1cc(O)c(-c2ccc(-c3cc(Nc4ccc(CNC5CC5)cc4)n[nH]3)cc2)c(Cl)c1 [Example 8, 4′-[5-(4-Cyclopropylaminomethyl-phenylamino)-2H-pyrazol-3-yl]-biphenyl-6-chloro-2,4-diol acetate] |  | 6.82 |  | 
2 | Oc1ccc(-c2ccc(-c3cc(Nc4ccc(CNCC5CC5)cc4)n[nH]3)cc2)c(O)c1 [Example 10, 4′-[5-(4-Cyclopropylmethylaminomethyl-phenylamino)-2H-pyrazol-3-yl-]-biphenyl-2,4-diol acetate] |  | 7.12 |  | 
3 | OCc1ccc(Nc2cc(-c3ccc(-c4ccc(O)cc4O)cc3)[nH]n2)cn1 [Example 12, 4′-[5-(6-Hydroxymethyl-pyridin-3-ylamino)-2H-pyrazol-3-yl]-biphenyl-2,4-diol] |  |  | 5 | 
4 | OCc1cc(Nc2cc(-c3ccc(-c4ccc(O)cc4O)cc3)[nH]n2)ccn1 [Example 13, 4′-[5-(2-Hydroxymethyl-pyridin-4-ylamino)-2H-pyrazol-3-yl]-biphenyl-2,4-diol acetate] |  |  | 0 | 
5 | Oc1ccc(-c2ccc(-c3cc(Nc4ccc(CNC5CCCC5)nc4)n[nH]3)cc2)c(O)c1 [Example 14, 4′-[5-({6-[(cyclopentylamino)methyl]pyridin-3-yl}amino)-1H-pyrazol-3-yl]-1,1′-biphenyl-2,4-diol] | 8.00 to 9.00 | 6.80 |  | 
6 | Oc1ccc(-c2ccc(-c3cc(Nc4ccccn4)[nH]n3)cc2)c(O)c1 [Example 17, N-[5-(2′,4′-Dihydroxy-1,1′-biphenyl-4-yl)-1H-pyrazol-3-yl]pyridin-2-amine] |  |  | 16 | 
7 | Oc1ccc(-c2ccc(-c3cc(Nc4cccnc4)[nH]n3)cc2)c(O)c1 [Example 18, N-[5-(2′,4′-Dihydroxy-1,1′-biphenyl-4-yl)-1H-pyrazol-3-yl]pyridin-3-amine] |  | 6.27 |  | 
8 | Oc1ccc(-c2ccc(-c3cc(Nc4ccncc4)[nH]n3)cc2)c(O)c1 [Example 19, 4′-[5-(pyridin-4-ylamino)-1H-pyrazol-3-yl]-1,1′-biphenyl-2,4-diol] | 8.00 to 9.00 |  | 14 | 
9 | Oc1ccc(-c2ccc(-c3cc(Nc4cncs4)[nH]n3)cc2)c(O)c1 [Example 20, 4′-[5-(1,3-thiazol-5-ylamino)-1H-pyrazol-3-yl]-1,1′-biphenyl-2,4-diol] |  |  | 10 | 
10 | Oc1ccc(-c2ccc(-c3cc(Nc4ccccc4)n[nH]3)cc2)c(O)c1 [Example 21, 4′-(3-anilino-1H-pyrazol-5-yl)-1,1′-biphenyl-2,4-diol] |  | 6.30 |  | 
11 | CCNCc1ccc(Nc2cc(-c3ccc(-c4ccc(O)cc4O)cc3)[nH]n2)cn1 [Example 26, -[5-({6-[(ethylamino)methyl]pyridin-3-yl}amino)-1H-pyrazol-3-yl]-1,1′-biphenyl-2,4-diol] |  | 6.25 |  | 

Further lines, with some results ahead:

Row | pKi [1] | pEC50 [2] | Structure (SMILES) | percent abrogation of the checkpoint ([2]; @ 0.5 μM) [% @ 0.5 μM] | other results
12 | 8.00 to 9.00 |  | N#Cc1cccc(Nc2cc(-c3ccc(-c4ccc(O)cc4O)cc3)n[nH]2)c1 [Example 1, 3-{[3-(2′,4′-Dihydroxy-1,1′-biphenyl-4-yl)-1H-pyrazol-5-yl]amino}benzonitrile] | 7 | 
13 | 8.00 to 9.00 |  | N#Cc1ccc(Nc2cc(-c3ccc(-c4ccc(O)cc4O)cc3)n[nH]2)cc1 [Example 2, 4-{[3-(2′,4′-Dihydroxy-1,1′-biphenyl-4-yl)-1H-pyrazol-5-yl]amino}benzonitrile] |  | percent abrogation of the checkpoint ([2]; @ 1 μM): 1% @ 1 μM
14 |  | 6.05 | Oc1ccc(-c2ccc(-c3cc(Nc4cccc(CNC5CC5)c4)n[nH]3)cc2)c(O)c1 [Example 3, 4′-[5-(3-Cyclopropylaminomethyl-phenylamino)-2H-pyrazol-3-yl]-biphenyl-2,4-diol acetate] |  | 
15 |  | 7.22 | Oc1ccc(-c2ccc(-c3cc(Nc4ccc(CNC5CC5)cc4)n[nH]3)cc2)c(O)c1 [Example 4, 4′-[5-(4-Cyclopropylaminomethyl-phenylamino)-2H-pyrazol-3-yl]-biphenyl-2,4-diol acetate] |  | 
16 |  | 6.42 | Cc1cc(O)cc(O)c1-c1ccc(-c2cc(Nc3ccc(CNC(C)C)cc3)n[nH]2)cc1 [Example 7] |  | 
17 | 8.00 to 9.00 | 7.06 | Oc1cc(O)c(-c2ccc(-c3cc(Nc4ccc(CNC5CC5)cc4)n[nH]3)cc2)c(F)c1 [Example 9, 4′-[5-({4-[(cyclopropylamino)methyl]phenyl}amino)-1H-pyrazol-3-yl]-6-fluoro-1,1′-biphenyl-2,4-diol] |  | 
18 | 8.00 to 9.00 |  | Oc1ccc(-c2ccc(-c3cc(Nc4ncccn4)n[nH]3)cc2)c(O)c1 [Example 11, N-[3-(2′,4′-dihydoxy-1,1′-biphenyl-4-yl)-1H-pyrazol-5-yl]pyrimidin-2-amine] |  | 
19 | 8.00 to 9.00 | 6.42 | CN(C)Cc1ccc(Nc2cc(-c3ccc(-c4ccc(O)cc4O)cc3)[nH]n2)cn1 [Example 15, 4′-[5-({6-[(dimethylamino)methyl]pyridin-3-yl}amino)-1H-pyrazol-3-yl]-1,1′-biphenyl-2,4-diol] |  | 
20 | 8.00 to 9.00 |  | CNC(=S)c1ccc(Nc2cc(-c3ccc(-c4ccc(O)cc4O)cc3)n[nH]2)cn1 [Example 16, 5-[5-(2′,4′-Dihydroxy-biphenyl-4-yl)-2H-Pyrazol-3-ylamino]-pyridine-2-carbothioic acid methylamide] | 10 | 
21 |  | 7.22 | CCC(C)NCc1ccc(Nc2cc(-c3ccc(-c4ccc(O)cc4O)cc3)[nH]n2)cc1 (stereo not shown) [Example 22] |  | 
22 | 8.00 to 9.00 | 6.78 | Oc1ccc(-c2ccc(-c3cc(Nc4ccc(CNCC5CC5)nc4)[nH]n3)cc2)c(O)c1 [Example 23, 4′-{5-[(6-{[(cyclopropylmethyl)amino]methyl}pyridin-3-yl)amino]-1H-pyrazol-3-yl}-1,1′-biphenyl-2,4-diol] |  | 
23 |  | 6.25 | CC(C)NCc1ccc(Nc2cc(-c3ccc(-c4ccc(O)cc4O)cc3)n[nH]2)cn1 [Example 25, 4′-[5-({6-[(isopropylamino)methyl]pyridin-3-yl}amino)-1H-pyrazol-3-yl]-1,1′-biphenyl-2,4-diol] |  | 
